The assay addresses T1, MCH receptor (Homo sapiens, UniProt Q99705).
T1 construct: expressed in transfected cells; host or cells: CHO cells
In words: MCH Receptor Binding Assay ([125I]-MCH SPA, membranes from CHO cells expressing the MCH receptor). The method, then: MCH Receptor Binding Assay:
Membranes from CHO cells expressing the MCH receptor were prepared by lysing cells with 5 mM HEPES for 15 min at 4 C. Cell lysates were centrifuged ([…], 15 min) and the pellet was resuspended in 5 mM HEPES. For each 96-well plate (Microlite, Dynex Technologies), 1 mg of cell membranes were incubated with 10 mg of wheat germ agglutinin SPA beads (Amersham) for 5 min at 4 C in a volume of 10 ml of binding buffer (25 mM HEPES, 10 mM MGCl2, 10 mM NaCl, 5 mM MnCl2, 0.1% BSA). The membrane/bead mixture was centrifuged (1500×g, 3.5 min), the supernatant was aspirated, and the pellet was resuspended in 10 ml binding buffer. The centrifugation, aspiration and resuspension were then repeated. The membrane/bead mixture (100 μl) was then added to 96-well plates containing 50 μl of 500 pM [^125I]-MCH (NEN) and […] of the appropriate concentration of compound (4× the desired final concentration). Nonspecific binding was determined by including 1 μM MCH in the binding reaction. The binding reaction was incubated at room temperature for 2 h. Plates were then analyzed in a TOPCOUNT microplate scintillation counter (Packard). Data was analyzed and Ki values were determined using GraphPad Prim.

The mark [1] stands for this setting: CHO cell membranes, [125I]-MCH, read-out: MCH Receptor Activity (Ki rating).
Where [2] appears, read: unit inferred, read-out: Ki values.

Where two headings read alike, the source gives them in different places.

T1 sequence (Q99705 whole entry): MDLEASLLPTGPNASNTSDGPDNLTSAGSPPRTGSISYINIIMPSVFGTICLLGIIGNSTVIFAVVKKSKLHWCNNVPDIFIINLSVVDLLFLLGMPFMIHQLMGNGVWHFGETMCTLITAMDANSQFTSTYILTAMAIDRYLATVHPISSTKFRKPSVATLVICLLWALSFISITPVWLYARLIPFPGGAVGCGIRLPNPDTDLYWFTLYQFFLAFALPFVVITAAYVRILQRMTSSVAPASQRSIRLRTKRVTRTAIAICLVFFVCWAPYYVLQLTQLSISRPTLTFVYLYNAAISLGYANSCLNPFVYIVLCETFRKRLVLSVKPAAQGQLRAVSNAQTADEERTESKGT

As a reminder, the Ki is a dissociation constant, usually derived from enzyme kinetics or from competition with a known ligand. For `CCCOc1ccsc1C(=O)N1CCC(N2CCN([C@@H](C)c3ccc(CCc4ccc5c(c4)OCO5)cc3)[C@H](C)C2)CC1` [Example 1], the inhibition constant Ki under setting [1] fell in the range of 10 to 15 nM.

In the case of `CCOc1ccsc1C(=O)N1CCC(N2CCN([C@@H](C)c3ccc(-c4cc(Cl)cc(Cl)c4)cc3)[C@H](C)C2)CC1` [Example 2], the inhibitory constant (Ki) under setting [1] was 10 to 15 nM.

Turning to `CCCOc1ccsc1C(=O)N1CCC(C)(N2CCN([C@@H](C)c3ccc(-c4cc(Cl)cc(Cl)c4)cc3)[C@H](C)C2)CC1` [Example 3], the inhibition constant Ki under setting [1] was in the range of 6 to 10 nM.

As for `CCCOc1ccsc1C(=O)N1CCC(N2CCN([C@@H](C)c3ccc(CCc4ccc(Cl)cc4)cc3)[C@H](C)C2)CC1` [Example 4], under setting [1], the Ki was 10 to 15 nM.

With `C[C@@H]1CN(C2(C)CCN(C(=O)c3sccc3OCC3CC3)CC2)CCN1[C@@H](C)c1ccc(-c2cc(Cl)cc(Cl)c2)cc1` [Example 5], the Ki under setting [1] lay within 6 to 10 nM.

With `CCCOc1ccsc1C(=O)N1CCC(N2CCN([C@@H](C)c3ccc(-c4cc(Cl)cc(Cl)c4)cc3)[C@H](C)C2)CC1` [Example 6], the Ki under setting [1] fell in the range of 6 to 10 nM.

With `CCCCOc1ccsc1C(=O)N1CCC(N2CCN([C@@H](C)c3ccc(-c4cc(Cl)cc(Cl)c4)cc3)[C@H](C)C2)CC1` [Example 7], under setting [1], the Ki was in the range of 10 to 15 nM.

Consider `CCCCOc1ccsc1C(=O)N1CCC(N2CCN([C@@H](C)c3ccc(-c4cc(Cl)cc(Cl)c4)cc3)[C@H](C)C2)CC1` [Example 8], for which, under setting [1], the inhibition constant Ki is 6 to 10 nM.

For `CCCOc1ccsc1C(=O)N1CCC(N2CCN([C@@H](C)c3ccc(-c4ccc(F)c(Cl)c4)cc3)[C@H](C)C2)CC1` [Example 9], the Ki under setting [1] was 10 to 15 nM.

In the case of `CCOc1ccsc1C(=O)N1CCC(N2CCN([C@@H](C)c3ccc(-c4ccc(Cl)s4)cc3)[C@H](C)C2)CC1` [Example 10], the inhibitory constant (Ki) under setting [1] was greater than 15 nM.

On to `C[C@@H]1CN(C2CCN(C(=O)c3sccc3OCC3CC3)CC2)C[C@@H](C)N1Cc1ccc(-c2cc(Cl)cc(Cl)c2)cc1` [Example 11], for which, under setting [1], the Ki is greater than 15 nM.

Take `C[C@@H]1CN(C2CCN(C(=O)c3sccc3OCC3CC3)CC2)CCN1[C@@H](C)c1ccc(-c2cc(Cl)cc(Cl)c2)cc1` [Example 12]: the Ki under setting [1] is 6 to 10 nM.

Take `CCOc1ccsc1C(=O)N1CCC(N2CCN([C@@H](C)c3ccc(CCc4ccc(C(F)(F)F)cc4)cc3)[C@H](C)C2)CC1` [Example 13]: under setting [1], the Ki was in the range of 6 to 10 nM.

Turning to `CCCOc1ccsc1C(=O)N1CCC(N2CCN([C@@H](C)c3ccc(CCc4ccc(C(F)(F)F)cc4)cc3)[C@H](C)C2)CC1` [Example 14], the Ki under setting [1] lay within 6 to 10 nM.

Regarding `C[C@@H]1CN(C2(C)CCN(C(=O)c3sccc3OCC3CC3)CC2)CCN1[C@@H](C)c1ccc(-c2ccncc2)cc1` [Example 15], the inhibitory constant (Ki) under setting [1] is 6 to 10 nM.

In the case of `CCOc1ccsc1C(=O)N1CCC(N2CCN([C@@H](C)c3ccc(-c4cc(Cl)cc(Cl)c4)cc3)[C@H](C)C2)CC1C` (stereo partly drawn) [Example 16], the inhibition constant Ki reads like this: under setting [1], 6 to 10 nM; under setting [2], 6 nM.

Turning to `CCOc1ccsc1C(=O)N1CCC(N2CCN([C@@H](C)c3ccc(-c4cc(Cl)cc(Cl)c4)cc3)[C@H](C)C2)CC1C` (stereo partly drawn) [Example 17], the Ki under setting [1] was greater than 15 nM.

With `CCOc1ccsc1C(=O)N1CCC(N2C[C@@H](C)N([C@@H](C)c3ccc(-c4cc(Cl)cc(Cl)c4)cc3)[C@H](C)C2)CC1` [Example 18], the Ki under setting [1] was in the range of 10 to 15 nM.

Turning to `CCCOc1cscc1C(=O)N1CCC(N2CCN([C@@H](C)c3ccc(-c4cc(Cl)cc(Cl)c4)cc3)[C@H](C)C2)CC1` [Example 19], the inhibition constant (Ki) under setting [1] was 6 to 10 nM.

With `CCCOc1cscc1C(=O)N1CCC(N2CCN([C@@H](C)c3ccc(-c4cc(Cl)cc(Cl)c4)cc3)[C@H](C)C2)CC1` [Example 20], the Ki under setting [2] amounted to 6 nM.

For the origin of these results see US7345042B2, “MCH antagonists for the treatment of obesity” (Schering Corporation, priority 2003, dated 2008).
